This passage reports IC50 results from BindingDB's records for doi:10.1021/acs.jnatprod.6b01177 (Hirosaki University, 2017).

Assay [1] in a line: Inhibition of human erythrocyte 20s proteasome caspase-like activity using Z-LLE-MCA as substrate pretreated for 10 mins followed by substrate addition measured after 3 hrs by spectrophotometric method.
Assay [2] can be described thus: Inhibition of human erythrocyte 20s proteasome trypsin-like activity using Boc-LRR-MCA as substrate pretreated for 10 mins followed by substrate addition measured after 3 hrs by spectrophotometric method.

What is called IC50 is the concentration that gives 50% inhibition.

In the case of `C=C1CC[C@H]2C(C)(C)[C@H](O)CC[C@]2(C)[C@H]1CC1=C(O)C(=O)C2=C(C1=O)[C@@]13C=C[C@@H](O)[C@H](O)[C@]1(C2)C(=O)c1c(O)cc(C)cc1C3=O`, the IC50 in assay [1] was 17.3 µM; in assay [2], > 50 µM.
